The source of these data is patent US11957792B2, “Taste-masked pharmaceutical compositions containing diclofenac” (GLATT AG, priority 2012, dated 2024).

Data set [1] is described as follows: Equilibrium solubility, saturation shake-flask method. In kind it is physicochemical. Particulars: 37 °C, thermodynamic from solid, mean ± SD (n=3). Here is the method: The solubility of diclofenac free acid, sodium and potassium was comparatively evaluated in media reflecting the oral way of administration, as e.g. with different pH values. The equilibrium solubility was determined using the saturation shake-flask method. Briefly, an excess amount of drug was added into the different media maintained at 37±0.5° C. and shaken for at least 24 hours. After equilibrium was reached, the excess of solid was removed and the diclofenac concentration in the supernatant solutions was determined by HPLC.

The nature of data set [2]: Agglomerate formation at pH 1.1 (such as gastric fluid). In kind it is physicochemical.

≈ marks a conversion by molar mass, not a printed value.

Broadly, the solubility is the dissolved amount per volume that the medium holds. A higher solubility goes with much dissolved substance. Consider `O=C(O)Cc1ccccc1Nc1c(Cl)cccc1Cl` [Diclofenac acid, 2-[(2,6-Dichlorophenyl)amino]benzeneacetic acid], for which the solubility in data set [1] (0.1N HCl, pH 1.1, simulated gastric fluid, 0.1N HCl pH 1.1) is 2.49 ± 0.15 µg/mL (≈ 8.41 µM); in data set [1] (simulated gastric fluid, pH 1.6, simulated gastric fluid, Simulated gastric fluid pH 1.6) it was 1.72 ± 0.01 µg/mL (≈ 5.81 µM). In addition, in data set [2], the formation of agglomerates entry is “not diclofenac acid form agglomerates”.

With `O=C(O)Cc1ccccc1Nc1c(Cl)cccc1Cl` [Diclofenac potassium], the formation of agglomerates entry in data set [2] is given as “form agglomerates”.

As for `O=C(O)Cc1ccccc1Nc1c(Cl)cccc1Cl` [Diclofenac sodium], the formation of agglomerates result in data set [2] is listed as “form agglomerates”.
